Tests used:
[1] = Drug-drug interaction study Part 1: plasma PK after 20 mg mitapivat sulfate alone or with itraconazole; assay type: in vivo, human; conditions: for Total exposure in the presence of itraconazole compared to dosing of mitapivat sulfate alone: 20 mg mitapivat sulfate, 200 mg itraconazole; for AUC(0-inf) / AUC(0-t) / Cmax: both sexes, human, healthy subjects; for AUC(0-inf): read-out: AUC0-inf, Geometric LSM; for AUC(0-t): read-out: AUC0-t, Geometric LSM; for Cmax: read-out: Cmax, Geometric LSM
Protocol: (§1) Twenty-eight (28) healthy, adult male and female (non-childbearing potential) subjects were enrolled in the study in total; 14 subjects in each study part (Parts 1 and 2). A minimum of 8 female subjects were enrolled in the study (i.e., a minimum of 4 female subjects per study part). Each subject participated in either Part 1 or Part 2, but not both.
On Day 1 of Treatment Period 1, a single oral dose of 20 mg mitapivat sulfate was administered. Serial blood samples for plasma assay of mitapivat concentrations and its CYP3A4 metabolite, referred to herein as the “Metabolite” (structure below),
[drawing 3] were collected from predose to 120 hours following administration of mitapivat sulfate. In Treatment Period 2, an oral dose of 200 mg itraconazole was administered once daily (QD) for 9 consecutive days (Day 1 through Day 9 of Treatment Period 2) with a single oral dose of 20 mg mitapivat sulfate coadministered on Day 5. Serial blood samples for plasma assay of mitapivat and the Metabolite concentrations were collected from predose to 120 hours following coadministration of mitapivat sulfate and itraconazole on Day 5.
In Treatment Period 1, mitapivat sulfate was administered orally with approximately 240 mL of water. In Treatment Period 2, on Days 1 to 4, itraconazole was administered alone immediately followed by approximately 220 mL of water, and on Day 5, itraconazole was administered first (no water) and was immediately followed by mitapivat sulfate administration with approximately 220 mL of water. Study drugs (mitapivat sulfate and itraconazole) were administered following an overnight fast of at least 10 hours on Day 1 of Treatment Period 1 (mitapivat sulfate only) and Day 5 of Treatment Period 2 (mitapivat sulfate and itraconazole), and subjects remained fasted for 4 hours after dosing. On all other dosing days, itraconazole was administered following a predose fast of at least 4 hours and subjects remained fasted for at least 2 hours after dosing.
Mitapivat sulfate (20 mg tablets) administered along with Itraconazole (also referred to as Sporanox®, 10 mg/mL oral solution, is considered as the test arm in this study. Mitapivat sulfate administered alone is considered as the reference arm in this study. In Period 1, a single oral dose of 20 mg mitapivat sulfate was administered orally with approximately 240 mL of water. In Period 2, on Day 5 (coadministration of itraconazole and mitapivat sulfate), 200 mg itraconazole (20 mL of 10 mg/mL oral solution) was administered first (no water) and was immediately followed by 20 mg mitapivat sulfate (1×20 mg tablet) administration with approximately 220 mL of water. On all other dosing days, itraconazole was administered alone immediately followed by approximately 220 mL of water. Each subject received 2 doses of mitapivat sulfate and 9 doses of itraconazole in Part 1.
(§2) In Parts 1 and 2, for mitapivat and the Metabolite, blood samples were obtained for all subjects to determine the plasma concentrations of mitapivat, and the Metabolite, before mitapivat sulfate dosing (0 hour) on Day 1 of Period 1 (Parts 1 and 2) and Day 5 (Part 1) or Day 8 (Part 2) of Period 2 at 0.5, 1, 1.5, 2, 3, 4, 5, 6, 8, 12, 16, 24, 48, 72, 96, and 120 hours postdose. Plasma concentrations of mitapivat and the Metabolite were determined using methods validated with respect to accuracy, precision, linearity, sensitivity, and specificity, with a lower limit of quantitation (LLOQ) of 0.5 ng/mL for both analytes. A noncompartmental PK approach was used to analyze individual plasma mitapivat and the Metabolite concentration time data (using Phoenix® WinNonlin® Version 7.0). The following PK parameters were calculated: AUC0-t, AUC0-inf, AUC0-24, AUC%extrap, Cmax, CL/F (mitapivat only), Tlast, Tmax, t½, and Vz/F (mitapivat only).
(§3) PK parameters were presented with a minimum of 3 significant figures. […]

CYP2C9 = CYP2C9 (Homo sapiens, UniProt P11712); assay: CYP enzyme inhibition; assay type: in vitro ADME
CYP2C19 = CYP2C19 (Homo sapiens, UniProt P33261); assay: CYP enzyme inhibition; assay type: in vitro ADME
[2] = Drug-drug interaction study Part 2: plasma PK after 50 mg mitapivat sulfate alone or with rifampin; assay type: in vivo, human; conditions: for Nominal time of peak arithmetic mean concentration: postdose; for Nominal time of peak arithmetic mean concentration / AUC(0-inf) / AUC(0-t) / Cmax: plasma; for Total exposure in the presence of rifampin compared to dosing of mitapivat sulfate alone: 50 mg mitapivat sulfate, 600 mg rifampin; for AUC(0-inf) / AUC(0-t) / Cmax: both sexes, human, healthy subjects; for AUC(0-inf): read-out: AUC0-inf, Geometric LSM; for AUC(0-t): read-out: AUC0-t, Geometric LSM; for Cmax: read-out: Cmax, Geometric LSM
Protocol: as §1
On Day 1 of Treatment Period 1, a single oral dose of 50 mg mitapivat sulfate was administered. Serial blood samples for plasma assay of mitapivat and the Metabolite concentrations were collected from predose to 120 hours following administration of mitapivat sulfate. In Treatment Period 2, an oral dose of 600 mg rifampin was administered QD for 12 consecutive days (Day 1 through Day 12 of Treatment Period 2) with a single oral dose of 50 mg mitapivat sulfate coadministered on Day 8. Serial blood samples for plasma assay of mitapivat sulfate and the Metabolite concentrations were collected from predose to 120 hours following coadministration of mitapivat and rifampin on Day 8.
In Part 2, study drugs were administered with approximately 240 mL of water on all dosing days including the coadministration of mitapivat sulfate and rifampin on Day 8 of Treatment Period 2. Mitapivat sulfate and rifampin was administered following an overnight fast of at least 10 hours on Day 1 of Treatment Period 1 (mitapivat sulfate only) and Day 8 of Treatment Period 2 (both mitapivat sulfate and rifampin) and subjects remained fasted for 4 hours after dosing. On all other dosing days, rifampin was administered following a predose fast of at least 4 hours and subjects remained fasted for at least 2 hours after dosing. There was a washout period of 7 days between the mitapivat sulfate dose in Treatment Period 1 and the first itraconazole (Part 1) or rifampin (Part 2) dose in Treatment Period 2. All study drugs were consumed within 5 minutes for both Part 1 and Part 2.
Mitapivat sulfate (50 mg tablets) administered along with Rifampin (also referred to as Rifadin®, 300 mg capsules) is considered as the test arm in this study. Mitapivat sulfate (50 mg tablets) administered alone is considered as the reference arm in this study.
In Period 1, a single oral dose of 50 mg mitapivat sulfate was administered orally. In Period 2, subjects were administered 600 mg rifampin (2×300 mg capsules) QD on Day 1 to Day 12 inclusive, with 50 mg mitapivat sulfate (1×50 mg tablet) coadministered on Day 8. Study drugs were administered with approximately 240 mL of water on all dosing days including the coadministration of mitapivat sulfate and rifampin on Day 8 of Period 2.
as §2, §3

[3] = plasma, 20 mg mitapivat sulfate oral alone (Reference)
[4] = plasma, 20 mg mitapivat sulfate oral on Day 5 + 200 mg itraconazole QD Days 1-9 (Test)
[5] = 50 mg mitapivat sulfate coadministered with 600 mg rifampin (Period 2)
[6] = 50 mg mitapivat sulfate given alone (Period 1)
[7] = 50 mg mitapivat sulfate oral alone (Reference)
[8] = 50 mg mitapivat sulfate oral on Day 8 + 600 mg rifampin QD Days 1-12 (Test)

Sequence of CYP2C19 (P33261 whole entry): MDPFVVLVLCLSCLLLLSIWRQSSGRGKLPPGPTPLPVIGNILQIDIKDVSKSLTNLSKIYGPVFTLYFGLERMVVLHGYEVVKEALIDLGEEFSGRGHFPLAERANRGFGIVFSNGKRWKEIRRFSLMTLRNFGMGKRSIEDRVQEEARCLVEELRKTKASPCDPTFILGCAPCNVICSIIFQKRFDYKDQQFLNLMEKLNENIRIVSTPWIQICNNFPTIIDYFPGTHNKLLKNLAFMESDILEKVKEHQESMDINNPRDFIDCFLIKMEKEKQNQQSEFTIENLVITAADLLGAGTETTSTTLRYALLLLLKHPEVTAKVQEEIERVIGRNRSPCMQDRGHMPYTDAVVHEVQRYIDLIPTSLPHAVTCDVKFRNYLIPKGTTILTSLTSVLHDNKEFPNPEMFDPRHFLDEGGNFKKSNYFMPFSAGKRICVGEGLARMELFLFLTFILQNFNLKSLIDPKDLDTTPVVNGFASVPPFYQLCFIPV
Sequence of CYP2C9 (P11712 whole entry): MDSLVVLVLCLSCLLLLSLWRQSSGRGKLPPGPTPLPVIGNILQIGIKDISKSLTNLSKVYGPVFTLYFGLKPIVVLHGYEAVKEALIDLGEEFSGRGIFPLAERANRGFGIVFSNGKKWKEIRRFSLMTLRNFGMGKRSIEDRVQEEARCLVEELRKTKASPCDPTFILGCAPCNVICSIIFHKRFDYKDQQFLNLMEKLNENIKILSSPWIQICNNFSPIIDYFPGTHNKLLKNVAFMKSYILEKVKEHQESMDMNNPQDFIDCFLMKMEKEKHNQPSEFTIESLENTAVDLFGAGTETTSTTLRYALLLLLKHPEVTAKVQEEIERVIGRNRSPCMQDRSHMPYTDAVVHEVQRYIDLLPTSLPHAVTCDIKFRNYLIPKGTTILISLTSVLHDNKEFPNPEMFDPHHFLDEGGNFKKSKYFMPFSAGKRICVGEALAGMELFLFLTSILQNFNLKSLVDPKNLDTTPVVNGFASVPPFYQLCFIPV

| Total exposure in the presence of itraconazole compared to dosing of mitapivat sulfate alone [1] | AUC(0-inf) [1, 3] [ng·h/mL] | AUC(0-t) [1, 3] [ng·h/mL] | Cmax [1, 3] [ng/mL] | AUC(0-inf) [1, 4] [ng·h/mL] | AUC(0-t) [1, 4] [ng·h/mL] | Cmax [1, 4] [ng/mL] | Inhibition of CYP2C9 (CYP2C9) | Inhibition of CYP2C19 (CYP2C19) | Nominal time of peak arithmetic mean concentration [2, 5] [h] | Nominal time of peak arithmetic mean concentration [2, 6] | Total exposure in the presence of rifampin compared to dosing of mitapivat sulfate alone [2] | AUC(0-inf) [2, 7] [ng·h/mL] | AUC(0-t) [2, 7] [ng·h/mL] | Cmax [2, 7] [ng/mL] | AUC(0-inf) [2, 8] [ng·h/mL] | AUC(0-t) [2, 8] [ng·h/mL] | Cmax [2, 8] [ng/mL] | Delay in time to peak concentration ([1]; coadministered with itraconazole compared to administered alone, plasma) | Compound |
| --- | --- | --- | --- | --- | --- | --- | --- | --- | --- | --- | --- | --- | --- | --- | --- | --- | --- | --- | --- |
| increased | 216 | 197 | 18.8 | 339 | 300 | 9.11 | mild inhibitor | mild inhibitor | ~1 | approximately 2 hour | decreased | 663 | 623 | 53.8 | 245 | 230 | 64.5 | – | O=C(c1ccc(NS(=O)(=O)c2cccc3cccnc23)cc1)N1CCNCC1 [Metabolite] |
| increased | 1940 | 1880 | 412 | 9480 | 8860 | 704 | – | – | ~0.5 | approximately 1 hour | decreased | 5680 | 5560 | 1260 | 496 | 486 | 292 | approximately 2 hours | O=C(c1ccc(NS(=O)(=O)c2cccc3cccnc23)cc1)N1CCN(CC2CC2)CC1 [Mitapivat, N-(4-(4-(cyclopropylmethyl)piperazine-1-carbonyl)phenyl)quinoline-8-sulfonamide] |

From US11878049B1, “Mitapivat therapy and modulators of cytochrome P450” (Agios Pharmaceuticals, Inc., priority 2019, dated 2024)
